Patent US11976280B2, “SMAC/Diablo inhibitors useful for treating cancer” (THE NATIONAL INSTITUTE FOR BIOTECHNOLOGY IN THE NEGEV LTD., priority 2017, dated 2024)
d = 2'-deoxy (DNA); r = 2'-OH (RNA)

Tested on: A549 cells-derived tumors
Experiment: Next-generation sequencing (NGS) of si-NT- and si-hSMAC-A-treated tumors
Format: in vivo, human
Method: Libraries were prepared by the INCPM-RNA-seq unit (Weizmann Institute, Israel). Briefly, polyA fraction (mRNA) was purified from 500 ng of total RNA, isolated as above, followed by fragmentation and generation of double stranded cDNA. End repair, a base addition, adapter ligation and PCR amplification steps were performed according to established methods. Libraries were evaluated by Qubit and TapeStation. Sequencing libraries were constructed with barcodes to allow multiplexing of 20 samples in one lane. Between 22 and 26 million reads single-end 60-bp reads were sequenced per sample on Illumina HiSeq 2500 V4 instrument.
Bioinformatics analyses were carried out at the Bioinformatics Core Facility at the National Institute for Biotechnology in the Negev, Ben-Gurion University. Raw sequence reads were assessed for quality using FASTQC and further trimmed for removal of remaining adaptors and low quality bases using Trimmomatic. The trimmed reads from each sample were separately aligned to the human and mouse genomes (GRCh38 and GRCm38.75, respectively) using STAR v2.3.0 with default settings. An average of 23.7±0.8 million reads per sample was obtained. Of these, an average of 13, 2.6, 7.8 and 0.3 million reads were mapped to human only, mouse only, both human and mouse, and none of them, respectively. After rejection of multi-mapped reads, a total of 11.5±2.5 human-specific, uniquely mapped reads, and 2.3±1.7 mouse-specific, uniquely mapped reads were subjected for further analysis. The number of aligned reads per gene per sample were counted using HTSeq count with “intersection-nonempty” (to handle reads that overlap with more than one gene) and “no stranded” as parameters. The other parameters were set to their default. Normalization and statistical analysis for differential expression were carried out using DESeq2 v1.6.3. Fold change values were converted to linear scale, with a minus sign indicating down-regulation.
Differentially expressed genes were defined as those having a p-value<0.05, and linear fold change>1.5 and <−1.5. Functional analysis was performed using the Gene Ontology system, DAVID and Expander software tools.
NGS was used to investigate changes in patterns of gene expression in si-NT-TTs and si-hSMAC-A-TTs (FIG. 10, and Tables 3-5). […] As si-hSMAC is human-specific, any effect on mouse gene expression must be mediated by the human tumor cells.
The major functional groups were changes were seen are presented below.

[1] = vs si-NT-TTs, ENDOPLASMIC AND GOLGI LUMENS
[2] = vs si-NT-TTs, ENDOPLASMIC AND GOLGI LUMENS / METABOLISM RELATED ENZYMES
[3] = vs si-NT-TTs, ER AND MITOCHONDRIA
[4] = vs si-NT-TTs, EXTRACELLULAR MATRIX

si-hSMAC-A: siRNA to human SMAC/Diablo; sense 5′AAGCGGUGUUUCUCAGAAUUGtt3′ (SEQ ID NO:20), antisense 5′AACAAUUCUGAGAAACCCGCtt3′ (SEQ ID NO:21) (sense AAGCGGUGUUUCUCAGAAUUGTT; antisense AACAAUUCUGAGAAACCCGCTT; sense: sugars from the 5' end r21 d2, backbone not given here; antisense: sugars from the 5' end r20 d2, backbone not given here)
Fold change, ACKR3-atypical chemokine receptor 3 gene expression (NGS, si-hSMAC-A- vs si-NT-treated A549 cells-derived tumors, gene ACKR3): −2.2 | Fold change, C5-complement component 5 gene expression (NGS, si-hSMAC-A- vs si-NT-treated A549 cells-derived tumors, gene C5): −1.7 | Fold change, C5AR1 (CD88)-complement component 5a receptor 1 gene expression (NGS, si-hSMAC-A- vs si-NT-treated A549 cells-derived tumors, gene C5AR1): −1.7 | Fold change, CCL24-chemokine (C-C motif) ligand 24 gene expression (NGS, si-hSMAC-A- vs si-NT-treated A549 cells-derived tumors, gene CCL24): 1.9 | Fold change, CCL28-chemokine (C-C motif) ligand 28 gene expression (NGS, si-hSMAC-A- vs si-NT-treated A549 cells-derived tumors, gene CCL28): 1.9 | Fold change, CD274-(PD-L1) molecule gene expression (NGS, si-hSMAC-A- vs si-NT-treated A549 cells-derived tumors, gene CD274): −1.9 | Fold change, CREB3L3-CAMP responsive element binding protein 3-like 3 gene expression (NGS, si-hSMAC-A- vs si-NT-treated A549 cells-derived tumors, gene CREB3L3): 2.0 | Fold change, CX3CL1-chemokine (C-X3-C motif) ligand 1 gene expression (NGS, si-hSMAC-A- vs si-NT-treated A549 cells-derived tumors, gene CX3CL1): 1.6 | Fold change, GAS6-growth arrest-specific 6 gene expression (NGS, si-hSMAC-A- vs si-NT-treated A549 cells-derived tumors, gene GAS6): −1.7 | Fold change, IL1R1-interleukin 1 receptor, type I gene expression (NGS, si-hSMAC-A- vs si-NT-treated A549 cells-derived tumors, gene IL1R1): −1.6 | Fold change, IL6-interleukin 6 gene expression (NGS, si-hSMAC-A- vs si-NT-treated A549 cells-derived tumors, gene IL6): −2.5 | Fold change, IL18BP-interleukin 18 binding protein gene expression (NGS, si-hSMAC-A- vs si-NT-treated A549 cells-derived tumors, gene IL18BP): −1.6 | Fold change, IL27RA-interleukin 27 receptor, alpha gene expression (NGS, si-hSMAC-A- vs si-NT-treated A549 cells-derived tumors, gene IL27RA): −1.6 | Fold change, IRF6-interferon regulatory factor 6 gene expression (NGS, si-hSMAC-A- vs si-NT-treated A549 cells-derived tumors, gene IRF6): 1.6 | Fold change, LBP-lipopolysaccharide binding protein gene expression (NGS, si-hSMAC-A- vs si-NT-treated A549 cells-derived tumors, gene LBP): −2.1 | Fold change, MRC2 (ENDO180)-mannose receptor, C type 2 gene expression (NGS, si-hSMAC-A- vs si-NT-treated A549 cells-derived tumors, gene MRC2): −1.7 | Fold change, OSMR-oncostatin M receptor gene expression (NGS, si-hSMAC-A- vs si-NT-treated A549 cells-derived tumors, gene OSMR): −1.7 | Fold change, PROC-protein C gene expression (NGS, si-hSMAC-A- vs si-NT-treated A549 cells-derived tumors, gene PROC): 1.8 | Fold change, PTGS2 (Cox-2)-prostaglandin-endoperoxide synthase 2 gene expression (NGS, si-hSMAC-A- vs si-NT-treated A549 cells-derived tumors, gene PTGS2): −1.8 | Fold change, TLR3-toll-like receptor 3 gene expression (NGS, si-hSMAC-A- vs si-NT-treated A549 cells-derived tumors, gene TLR3): −1.7 | Fold change, TNFAIP6 (TSG6) gene expression (NGS, si-hSMAC-A- vs si-NT-treated A549 cells-derived tumors, gene TNFAIP6): −1.6 | Fold change, TNFSF14 (LIGHT) gene expression (NGS, si-hSMAC-A- vs si-NT-treated A549 cells-derived tumors, gene TNFSF14): −1.8 | expression of genes associated with inflammation and the tumor microenvironment (in vivo): reduction | number of human genes down-regulated (in vivo): ~242 | number of human genes up-regulated (in vivo): about 186 | Fold change ACKR3 (vs si-NT-TTs, CELL MEMBRANE): −2.2 fold | Fold change BAMBI (vs si-NT-TTs, CELL MEMBRANE): 1.7 fold | Fold change C5AR1 (CD88) (vs si-NT-TTs, CELL MEMBRANE): −1.7 fold | Fold change CDH3 (vs si-NT-TTs, CELL MEMBRANE): 1.7 fold | Fold change CLDN4 (vs si-NT-TTs, CELL MEMBRANE): 2.4 fold | Fold change CLMP (vs si-NT-TTs, CELL MEMBRANE): −1.7 fold | Fold change CNTNAP2 (vs si-NT-TTs, CELL MEMBRANE): −1.8 fold | Fold change DSC2 (vs si-NT-TTs, CELL MEMBRANE): 1.6 fold | Fold change EMP1 (vs si-NT-TTs, CELL MEMBRANE): 1.8 fold | Fold change ITGA1 (CD49a) (vs si-NT-TTs, CELL MEMBRANE): −1.9 fold | Fold change TNS1 (vs si-NT-TTs, CELL MEMBRANE): −1.6 fold | Fold change ABCC6 [1]: −2.3 fold | Fold change AGR3 [1]: 4.1 fold | Fold change AHCYL2 [1]: −1.7 fold | Fold change BACE1 [1]: −1.5 fold | Fold change CEMIP [1]: −3.6 fold | Fold change CHERP [1]: −1.7 fold | Fold change CLGN [1]: −1.9 fold | Fold change COX10-AS1 [1]: −2.1 fold | Fold change CYP26B1 [1]: −1.8 fold | Fold change FAM20A [1]: −4.4 fold | Fold change FOXRED2 [1]: −1.5 fold | Fold change ITPR1 [1]: −1.7 fold | Fold change NCK2 [1]: 2.0 fold | Fold change P4HA3 [1]: −1.9 fold | Fold change PCSK5 [1]: −2.3 fold | Fold change PPAP2B [1]: −1.8 fold | Fold change PTGS2 (COX-2) [1]: −1.8 fold | Fold change RIC3 [1]: −2.7 fold | Fold change RYR1 [1]: 2.5 fold | Fold change SEC61G [1]: 1.8 fold | Fold change TM4SF20 [1]: −1.7 fold | Fold change TMEM147-AS [1]: −1.7 fold | Fold change UGT1A7 [1]: −3.5 fold | Fold change UGT1A9 [1]: −17.2 fold | Fold change ACAD10 [2]: −1.7 fold | Fold change H6PD (GDH) [2]: −1.6 fold | Fold change KLK6 [3]: 25.83 fold | Fold change SGK1 [3]: −1.7 fold | Fold change CD9 (TSPAN29) (vs si-NT-TTs, EXOSOMES): 1.5 fold | Fold change CD63 (TSPAN30) (vs si-NT-TTs, EXOSOMES): 3.5 fold | Fold change CD274 (PD-L1) (vs si-NT-TTs, EXOSOMES): −1.9 fold | Fold change CEACAM5 (CD66e) (vs si-NT-TTs, EXOSOMES): 2.2 fold | Fold change EPCAM (vs si-NT-TTs, EXOSOMES): 2.7 fold | Fold change FSTL1 (vs si-NT-TTs, EXOSOMES): −1.8 fold | Fold change GAS6 (vs si-NT-TTs, EXOSOMES): −1.7 fold | Fold change GP1BA (vs si-NT-TTs, EXOSOMES): −1.7 fold | Fold change HSPG2 (Perlecan) (vs si-NT-TTs, EXOSOMES): −1.7 fold | Fold change IGFBP7 (vs si-NT-TTs, EXOSOMES): −1.8 fold | Fold change NID2 (vs si-NT-TTs, EXOSOMES): −2.1 fold | Fold change RAB17 (vs si-NT-TTs, EXOSOMES): 1.9 fold | Fold change TSPAN8 (vs si-NT-TTs, EXOSOMES): 1.6 fold | Fold change TSPAN13 (vs si-NT-TTs, EXOSOMES): 1.8 fold | Fold change VAMP8 (vs si-NT-TTs, EXOSOMES): 1.9 fold | Fold change CANT1 (vs si-NT-TTs, EXOSOMES / METABOLISM RELATED ENZYMES): 1.5 fold | Fold change ABI3BP (TARSH) [4]: −2.4 fold | Fold change ADAMTS9 [4]: −2.2 fold | Fold change BMP2 [4]: −1.8 fold | Fold change BMPER [4]: −1.7 fold | Fold change CCBE1 [4]: −2.7 fold | Fold change COL4A1 [4]: −2.2 fold | Fold change COL4A2 [4]: −1.8 fold | Fold change COL5A1 [4]: −1.5 fold | Fold change COL12A1 [4]: −1.5 fold | Fold change COL17A1 (BP180) [4]: 2.1 fold | Fold change EDIL3 (Del1) [4]: −2.5 fold
